Measured values: patent publication US20230078764A1 (Yumanity Therapeutics, Inc., priority 2019, published 2023)
Like-named read-outs stand apart in the source and are kept apart here.

Legend:
human SCD1 = target: T1, human SCD1 (Homo sapiens, UniProt O00767); experiment: Growth inhibition of yeast strain expressing human SCD1 as sole desaturase (OLE1 deleted), OD600 readout; type: cell-based; details: yeast strain expressing human SCD1 as sole desaturase; growth (OD600) after 40 h at 30° C.; read-out: SCD1 IC50
T1 construct: expressed in transfected cells; host or cells: yeast strain with OLE1 deleted, plasmid-borne human SCD1 (selected in SD-Ura)
T1 sequence (O00767 1-359): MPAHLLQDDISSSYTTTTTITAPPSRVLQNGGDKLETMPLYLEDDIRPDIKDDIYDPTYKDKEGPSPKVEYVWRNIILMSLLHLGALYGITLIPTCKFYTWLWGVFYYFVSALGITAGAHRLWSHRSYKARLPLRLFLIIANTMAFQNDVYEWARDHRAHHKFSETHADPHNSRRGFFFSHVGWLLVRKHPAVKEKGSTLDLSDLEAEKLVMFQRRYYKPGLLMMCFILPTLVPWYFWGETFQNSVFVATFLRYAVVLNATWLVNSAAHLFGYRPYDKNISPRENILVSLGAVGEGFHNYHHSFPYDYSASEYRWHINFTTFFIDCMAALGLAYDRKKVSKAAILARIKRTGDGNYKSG

human SCD5 = target: T2, human SCD5 (Homo sapiens, UniProt Q86SK9); experiment: Growth inhibition of yeast strain expressing human SCD5 as sole desaturase (OLE1 deleted), OD600 readout; type: cell-based
T2 construct: expressed in transfected cells; host or cells: yeast strain with OLE1 deleted, plasmid-borne human SCD5 (selected in SD-Ura)
T2 sequence (Q86SK9 1-330): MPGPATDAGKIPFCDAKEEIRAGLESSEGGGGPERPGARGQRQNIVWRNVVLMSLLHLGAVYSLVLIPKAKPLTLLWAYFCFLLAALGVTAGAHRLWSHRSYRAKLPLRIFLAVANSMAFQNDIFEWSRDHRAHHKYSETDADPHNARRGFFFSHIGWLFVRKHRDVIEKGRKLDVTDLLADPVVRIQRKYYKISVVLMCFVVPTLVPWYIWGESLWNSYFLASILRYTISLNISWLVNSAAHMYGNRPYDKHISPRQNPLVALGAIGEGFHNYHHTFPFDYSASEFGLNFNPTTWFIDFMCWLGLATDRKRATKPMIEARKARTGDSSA

[1] = yeast strain expressing human SCD5 as sole desaturase, growth (OD600) after 40 h at 30° C., read-out: SCD5 IC50

SMILES	IC50 (human SCD1)	IC50 (human SCD5; [1])	IC50 (human SCD5; SCD5 IC50)
CN1C(=O)CCC1C(=O)Nc1ncc(Cc2cccc(F)c2)s1 (stereo not drawn) [Compound 400]	> 45 µM	> 45 µM	–
CNC(=O)c1ccnc(NC(=O)c2ccc(Oc3ccccc3Cl)cn2)c1 [Compound 678]	0.32 µM	0.38 µM	–
Cn1nc(C(=O)Nc2ccc(Cc3cc(F)cc(C#N)c3)cn2)ccc1=O [Example 42, N-(5-(3-cyano-5-fluorobenzyl)pyridin-2-yl)-1-methyl-6-oxo-1,6-dihydropyridazine-3-carboxamide]	2.41 µM	0.08 µM	–
COc1cc(Cc2ccc(NC(=O)c3ccc(=O)n(C)n3)nc2)ccc1F [Compound 597]	2.6 µM	0.07 µM	–
Cn1cccc(C(=O)Nc2ccc(Cc3ccc(F)c(F)c3)cn2)c1=O [Compound 328]	1.76 µM	0.01 µM	–
CC(C)n1cc(C(=O)Nc2ccc(Cc3cccc(Cl)c3)cn2)ccc1=O [Compound 83, N-(5-(3-chlorobenzyl)pyridin-2-yl)-1-isopropyl-6-oxo-1,6-dihydropyridine-3-carboxamide]	> 45 µM	–	0.42 µM
N#Cc1ccc(NC(=O)c2ccc(Cc3ccc(F)c(F)c3)cn2)cn1 [Compound 542]	18 µM	0.01 µM	–
COc1ccc(Cc2ccc(NC(=O)c3ccc(=O)n(C)c3)nc2)cn1 [Compound 58, N-(5-((6-methoxypyridin-3-yl)methyl)pyridin-2-yl)-1-methyl-6-oxo-1,6-dihydropyridine-3-carboxamide]	> 45 µM	–	35.6 µM

More lines, main results first:

IC50 (human SCD1)	IC50 (human SCD5; [1])	SMILES	IC50 (human SCD5; SCD5 IC50)
> 45 µM	0.39 µM	CN1N=C(C(=O)Nc2ccc(Cc3cccc(Br)c3)cn2)CCC1=O [Example 27, N-(5-(3-bromobenzyl)pyridin-2-yl)-1-methyl-6-oxo-1,4,5,6-tetrahydropyridazine-3-carboxamide]	–
0.13 µM	0.05 µM	CN1N=C(C(=O)Nc2ncc(Cc3ccc(F)cc3)s2)CCC1=O [Compound 208, N-(5-(4-fluorobenzyl)thiazol-2-yl)-1-methyl-6-oxo-1,4,5,6-tetrahydropyridazine-3-carboxamide]	–
> 45 µM	1.07 µM	CN1N=C(C(=O)Nc2ccc(OCc3cccc(Cl)c3)cn2)CCC1=O [Compound 170, N-(5-(3-chlorobenzyloxy)pyridin-2-yl)-1-methyl-6-oxo-1,4,5,6-tetrahydropyridazine-3-carboxamide]	–
> 45 µM	> 45 µM	O=C(Nc1ccc(Cc2cccc(F)c2)cn1)c1ccc(F)c(Cl)n1 [Compound 417]	–
> 45 µM	> 45 µM	O=C(Nc1ncc(Cc2cccc(F)c2)s1)C1=NN(CCO)C(=O)CC1 [Compound 420]	–
0.06 µM	0.01 µM	Cn1nc(C(=O)Nc2ccc(Cc3cc(F)c(F)c(Cl)c3)cn2)ccc1=O [Compound 528]	–
0.16 µM	0.08 µM	Cc1nnc(C(=O)Nc2ccc(Cc3cccc(Cl)c3)cn2)s1 [Compound 103, N-(5-(3-chlorobenzyl)pyridin-2-yl)-5-methyl-1,3,4-thiadiazole-2-carboxamide]	–
9.3 µM	2.4 µM	Cn1cc(C(=O)Nc2ccc(C3(c4ccc(F)c(F)c4)CC3)cn2)ccc1=O [Compound 647]	–
2.6 µM	0.32 µM	CC(O)c1ccc(C(=O)Nc2ccc(Cc3ccc(F)c(F)c3)cn2)cn1 (stereo not drawn) [Compound 514]	–
0.04 µM	0.04 µM	Cc1nnc(C(=O)Nc2ccc(Cc3cccc(Cl)c3)cn2)o1 [Compound 104, N-(5-(3-chlorobenzyl)pyridin-2-yl)-5-methyl-1,3,4-oxadiazole-2-carboxamide]	–
5.9 µM	0.32 µM	Cn1ccc(C(=O)Nc2ccc(Cc3ccc(F)c(F)c3)cn2)cc1=O [Compound 515]	–
0.01 µM	0.01 µM	Cc1nccc(C(=O)Nc2ccc(Cc3cccc(F)c3)cn2)n1 [Compound 144, N-(5-(3-fluorobenzyl)pyridin-2-yl)-2-methylpyrimidine-4-carboxamide]	–
> 45 µM	> 45 µM	CC(=O)Nc1ccc(/C=C/c2cccc(Cl)c2)nn1 [Compound 394]	–
